Experiments:
Format in all cases: cell-based
[1] = Viability of LnCaP cells by trypan blue exclusion after culture with paclitaxel; conditions: human, LnCaP prostate cell line; LnCaP cells cultured with 40 nM paclitaxel for 72 hours
Method: (§1) To investigate the effect of apoptosis induced by cytotoxic agents on flow cytometric and CELLSPOTTER® analysis of CTC, cells from the prostate cell line LnCaP were cultured in the presence or absence of 40 nM paclitaxel for 72 hours. […] The treated and untreated LnCaP cells were spiked into blood of healthy donors, selected by the ferrofluid methods described above, and analyzed by the CELLSPOTTER® system.

[2] = tested on: LnCaP cells; test: M30 Cytodeath antibody staining of caspase-cleaved cytokeratin 18; conditions: paclitaxel treated LnCaP cells
Method: Cells of the prostate cell line LnCaP were cultured with or without paclitaxel and spiked into blood of healthy donors.

[3] = tested on: LnCaP cells; test: CELLSPOTTER analysis of paclitaxel treated LnCaP cells spiked into blood of healthy donors (model to mimic tumor cell death); conditions: immunomagnetically selected
Method: as §1

CC(=O)O[C@H]1C(=O)[C@@]2(C)[C@H]([C@H](OC(=O)c3ccccc3)[C@]3(O)C[C@H](OC(=O)[C@H](O)[C@@H](NC(=O)c4ccccc4)c4ccccc4)C(C)=C1C3(C)C)[C@]1(OC(C)=O)CO[C@@H]1C[C@@H]2O [paclitaxel]
viability at 72 h, 40 nM [1]: 33% | staining with M30 Cytodeath antibody (early apoptosis) [2]: stained with M30 | signs of apoptosis (morphology, punctate cytokeratin staining) [3]: displayed signs of apoptosis
